{"source": "patent US8349801B2", "about": "“Peptide ligands for G-protein coupled receptors” (priority 2006, dated 2013)", "key": {"MrgX1": {"molecular_target": "T1, MrgX1 (Homo sapiens, UniProt Q96LB2)", "T1 construct": "expressed in transfected cells; host or cells: CHO-K1 (ATCC-CCL-61), transient co-transfection", "T1 sequence (Q96LB2 whole entry)": "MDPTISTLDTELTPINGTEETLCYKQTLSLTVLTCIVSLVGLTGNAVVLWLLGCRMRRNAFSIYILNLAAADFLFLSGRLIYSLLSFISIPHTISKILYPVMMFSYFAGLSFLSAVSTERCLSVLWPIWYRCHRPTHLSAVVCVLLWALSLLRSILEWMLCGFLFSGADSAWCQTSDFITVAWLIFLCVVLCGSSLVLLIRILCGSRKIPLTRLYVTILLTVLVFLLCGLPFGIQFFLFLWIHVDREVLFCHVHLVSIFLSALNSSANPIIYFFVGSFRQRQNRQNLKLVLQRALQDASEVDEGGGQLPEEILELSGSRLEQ", "test": "Calcium flux in CHO-K1 cells co-transfected with MrgX1 and Gα16", "assay_type": "cell-based", "settings": "dose response 1-3000 nM", "protocol": "(§1) The assay was carried out in CHO cells were transiently transfected with the GPCR of choice, by utilizing the promiscuous Gα16 to divert signaling to the Gq pathway, thus enabling readout of GPCR activation by testing for Calcium flux as described by Liu et al 2003 (Biomol Screen 8, 39-49).\n(§2) All the peptides thus obtained were tested for their ability to change calcium flux in CHO—K1 cells (ATCC-CCL-61) transiently co-transfected with an expression vector containing the GPCR of choice and expression vector containing the Gα16 encoding cDNA. Expression constructs containing cDNA clones for MrgX1, MrgX2, Mas or FPRL1 were commercially obtained in one of the following expression vectors: pcDNA3.1, pCMV6, or MO2.\nTransient transfections were performed using CHO—K1 cells as host cells. […]\nOn the day of the experiment, cells were loaded with Fluo4-NW (Invitrogen) according to the manufacturer's recommendation. Plates were loaded into a FlexStation™ (Molecular Devices) plate reader and fluorescence was monitored. Seventeen seconds following initiation of reading, cells were stimulated with the indicated agonist/compound at final concentration of 1 μM. […]\nBased on dose response experiments, EC50 best fit values were calculated by non-linear regression of sigmoidal dose-response curves, using Prism version 4 (GraphPad Software Inc., San Diego, Calif.). […]"}, "[1]": {"tested_on": "Isoproterenol induced rats", "test": "Cardiac remodeling induced by Isoproterenol", "assay_type": "in vivo, Wistar rats", "settings": "isoproterenol 2 mg/kg/day s.c. 7 days; peptides 1 ug/hour/Kg osmotic minipump; Losartan 1 mg/kg once a day by gavage", "protocol": "The effect of the peptides […] (SEQ ID NO:10), […]-dimer ([…]) (SEQ ID […]), P33_V (SEQ ID NO:7), P33-dimer (P33_D) (SEQ ID NO:6) on cardiac remodeling, was tested by determining their effect on heart hypertrophy and fibrosis (deposition of collagen I, III, and fibronectin) induced by Isoproterenol. Losartan (an antagonist of the known angiotensin II receptor, AT1, Kucharewicz et al., 2002; Hypertension, (40): 774-779) was used as positive control. The negative control group was treated with vehicle only. Additional control groups included rats not-treated with isoproterenol which were treated with the peptides, with Losartan or with the vehicle. The analysis included determination of the left ventricle mass and morphometry. In addition, immunofuorescence analysis of fibronectin and collagens I and III deposition was performed by confocal microscopy. Animals Acclimatization: Male Wistar rats Age: 13-14 weeks (250 to 300 g) were maintained in the animal facilities for 7 days before the beginning of the experiment. The animals were exposed to a brightness circle of light-dark cycle of 12 hs (day-06:00 to 18:00; night-18:00 to 06:00), and the room temperature was kept at 23±2° C. Heart failure was induced by daily injections of isoproterenol (2 mg/kg/day, subcutaneously) during 7 days. […] Immunofluorescence-labeling and quantitative confocal microscopy was used to investigate the distribution and quantity of collagen types I, III and fibronectin present in the left ventricles. […] Optimal confocal settings (aperture, gain and laser power) were determined at the beginning of each imaging session and then held constant during the analysis of all the samples. […] For quantitative analysis of collagens I, III, and fibronectin, the ImageTool 2.0 image analysis program was used ([…].edu/[…]) to measure the fluorescence intensity in images randomly selected. […]"}, "MrgX2": {"molecular_target": "T2, MrgX2 (Homo sapiens, UniProt Q96LB1)", "T2 construct": "expressed in transfected cells; host or cells: CHO-K1 (ATCC-CCL-61), transient co-transfection", "T2 sequence (Q96LB1 1-330)": "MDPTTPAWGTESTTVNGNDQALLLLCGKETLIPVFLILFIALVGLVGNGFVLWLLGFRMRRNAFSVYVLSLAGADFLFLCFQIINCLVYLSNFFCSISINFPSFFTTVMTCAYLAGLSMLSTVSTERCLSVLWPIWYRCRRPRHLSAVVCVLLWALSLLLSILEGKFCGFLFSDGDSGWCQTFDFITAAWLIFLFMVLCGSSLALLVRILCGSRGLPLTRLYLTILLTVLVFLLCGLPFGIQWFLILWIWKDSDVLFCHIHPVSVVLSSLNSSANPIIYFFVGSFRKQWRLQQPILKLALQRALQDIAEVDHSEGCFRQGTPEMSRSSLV", "test": "Calcium flux in CHO-K1 cells co-transfected with MrgX2 and Gα16", "assay_type": "cell-based", "settings": "for calcium flux relative to the negative control: 1 μM, about 20 to 90 seconds; for eliciting calcium flux compared to cortistatin-14: MrgX2-expressing cells, summary statement", "protocol": "as §1, §2\n(§3) Transient transfections were performed using CHO—K1 cells as host cells. Cells (12 million) were plated into T75 flasks on the day preceding transfection. Cells were transfected with the appropriate GPCR expression vector and with a vector expressing Gα16 using a lipid-based reagent, MTI, according to the manufacturer's recommendation. Cells were transfected for 5 hours, then re-plated into 96-well dishes (60,000 cells per well) and grown overnight.\n(§4) On the day of the experiment, cells were loaded with Fluo4-NW (Invitrogen) according to the manufacturer's recommendation. Plates were loaded into a FlexStation™ (Molecular Devices) plate reader and fluorescence was monitored. Seventeen seconds following initiation of reading, cells were stimulated with the indicated agonist/compound at final concentration of 1 μM. Each 96 well plate contained cells transfected with one GPCR expression vector and each of the examined peptides was tested in triplicate.\n(§5) We defined a hit as a peptide which elicited a clear and distinct increase in intracellular calcium that is clearly visible and statistically significant upon examination of the calcium trace for at least two repeats. The criterion for statistical significance was a p-value lower than 0.001 in a t-test comparing the levels of calcium before and after peptide addition.\n(§6) Based on dose response experiments, EC50 best fit values were calculated by non-linear regression of sigmoidal dose-response curves, using Prism version 4 (GraphPad Software Inc., San Diego, Calif.). The formulae for the sigmoidal dose-response curves was defined as Y=Bottom+(Top−Bottom)/(1+10^ (LogEC50−X)*HillSlope))\nThe ability of Peptides to change calcium flux was examined in CHO—K1 cells co-transfected with MrgX2 and Gal 6."}, "FPRL1": {"molecular_target": "T3, FPRL1 (Homo sapiens, UniProt P25090)", "T3 sequence (P25090 1-351)": "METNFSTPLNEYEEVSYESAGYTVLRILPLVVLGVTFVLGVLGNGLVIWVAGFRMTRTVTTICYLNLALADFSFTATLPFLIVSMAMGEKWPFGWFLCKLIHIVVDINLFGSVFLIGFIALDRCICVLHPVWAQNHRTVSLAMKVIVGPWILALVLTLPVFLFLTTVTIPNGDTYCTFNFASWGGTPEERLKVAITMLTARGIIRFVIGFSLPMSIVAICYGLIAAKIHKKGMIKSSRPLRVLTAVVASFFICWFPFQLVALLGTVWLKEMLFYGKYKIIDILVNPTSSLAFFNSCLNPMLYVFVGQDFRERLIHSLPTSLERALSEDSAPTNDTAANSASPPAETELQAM", "test": "Calcium flux in CHO-K1 cells co-transfected with FPRL1 and Gα16", "assay_type": "cell-based", "parameters": "expressed in transfected cells; host or cells: CHO-K1 (ATCC-CCL-61), transient co-transfection", "settings": "for calcium flux, P58 and derivatives: dose response", "protocol": "as §1, §2, §3, §4, §5, §6\nThe ability of Peptides to change calcium flux was examined in CHO—K1 cells co-transfected with FPRL1 and Gal 6."}, "[2]": {"tested_on": "Zymosan-induced murine dorsal air pouch model", "assay_type": "in vivo, mice", "settings": "4 h; for inhibition of zymosan-induced neutrophil (GR-1+) accumulation: FACS", "protocol": "The anti-inflammatory activity of P58 shorter derivatives was tested in the same model of acute inflammation used in Example 6, the Zymosan-induced murine dorsal air pouch model.\nMale out-bred Swiss albino mice were purchased from Harlan, UK (T.O. strain) and maintained on a standard chow pellet diet with tap water ad libitum and a 12:00 h light/dark cycle. All animals were housed for 7 days prior to experimentation to allow body weight to reach ˜25 g on the day of the experiment.\nDrugs were stored at −20° C. and defrosted on the day of the experiment. Peptide P58 (SEQ ID NO:1) was provided lyophilized; it was taken back to room temperature and dissolved with sterile PBS before use to make an initial 1 mg/ml solution. Peptide P58-4 (SEQ ID NO:2) was provided lyophilized; it was taken back to room temperature and dissolved with sterile PBS before use to make an initial 327 μg/ml solution. Peptide P58-5 (SEQ ID NO:3) was provided lyophilized; it was taken back to room temperature and dissolved with sterile PBS before use to make an initial 476 μg/ml solution. Vehicle consisted of sterile pyrogen free PBS (Gibco, cat no. 14190-094). Once dissolved, peptides P58 (SEQ ID NO:1), P58-4 (SEQ ID NO:2) and P58-5 (SEQ ID NO:3) gave a clear solution. Drugs or vehicle were administered i.v. at a final volume of 200 μl in the doses described below.\nLavage fluids were kept all the time on ice, then used to determine the number of migrated leukocytes, by taking an aliquot (100 μl) and diluting it 1:10 in Turk's solution (0.01% crystal violet in 3% acetic acid). The samples were then vortexed and 10 μl of the stained cell solution were placed in a Neubauer haematocymometer. Differential cell count was done using a light microscope (Olympus B061). In view of their chromatic characteristics and their nucleus and cytoplasm appearance, polymorphonuclear leukocytes (PMN; >95% neutrophils) could be easily identified.\nFor FACS analyses, an aliquot of lavage fluid was stained with the PE-conjugated anti-GR-1 monoclonal antibody (1:100 dilution, eBiosciences; Cat 11-5931) to mark polymorphonuclear leukocytes. Staining was performed at 4° C. Flow cytometry was performed using FACScan analyser (Becton Dickinson, Cowley, UK) with air-cooled 100 mW argon laser tuned to 488 nm connected to an Apple Macintosh G3 computer running Cell Quest II software. Forward and sidescatter characteristics were initially used to distinguish between the three distinct cell populations (lymphocytes, monocytes and granulocytes). Cells positive for GR-1 were detected in the FL2 channel (wavelength of 548 nm). Data are expressed as percentage of positive cells (in relation to the specific mAb). Determination of positive and negative populations was performed based on the control staining with irrelevant IgG isotype (rat IgG2b) labelled with PE. Once determined, quadrants were rigorously maintained for all analyses.\nData are shown for single mice, and also shown as mean±S.E. of (n) mice per group. Statistical differences were determined by ANOVA, plus Student Newman Keuls test. A P value<0.05 was taken as significant."}}, "note": "pEC50: −log10 of the molar value. Read-outs that look alike come from different tables or passages of the source. No end group written: not given here.", "data": [{"compound": "CSCC[C@H](NC(=O)[C@H](Cc1ccccc1)NC(=O)CNC(=O)CNC(=O)[C@@H](N)Cc1ccc(O)cc1)C(=O)N[C@@H](CCCNC(=N)N)C(=O)N[C@@H](CCCNC(=N)N)C(=O)N[C@H](C(=O)NCC(=O)N[C@@H](CCCNC(=N)N)C(=O)N1CCC[C@H]1C(=O)N[C@@H](CCC(=O)O)C(=O)N[C@@H](Cc1c[nH]c2ccccc12)C(=O)N[C@@H](Cc1c[nH]c2ccccc12)C(=O)N[C@@H](CCSC)C(=O)N[C@@H](CC(=O)O)C(=O)N[C@@H](Cc1ccc(O)cc1)C(=O)N[C@@H](CCC(N)=O)C(=O)N[C@@H](CCCCN)C(=O)N[C@@H](CCCNC(=N)N)C(=O)N[C@@H](Cc1ccc(O)cc1)C(=O)NCC(=O)O)C(C)C", "note": "[BAM22, reference compound]", "values": [{"measurement": "pEC50", "setting": "MrgX1", "result": "≤ 7.30"}]}, {"compound": "CCCCc1nc(Cl)c(CO)n1Cc1ccc(-c2ccccc2-c2nn[nH]n2)cc1", "note": "[Losartan, reference compound]", "values": [{"measurement": "effect on Isoproterenol induced raise in the left ventricle to body mass ratio (LV/BW)", "setting": "[1]", "result": "did not have an effect"}]}, {"compound": "AAQATGPLQDNELPGLDERPPRAHAQHFHKHQLWPSPFRALKPRP (listed as Homo sapiens) [Peptide P94]", "values": [{"measurement": "calcium flux relative to the negative control", "setting": "MrgX2", "result": "increased calcium flux"}, {"measurement": "eliciting calcium flux compared to cortistatin-14", "setting": "MrgX2", "result": "superior to cortistatin-14"}, {"measurement": "calcium flux relative to the negative control", "setting": "FPRL1; 1 μM, three wells, about 20 to 90 seconds", "result": "increased calcium flux"}]}, {"compound": "AHAQHFHKHQLWPSPFRALKPRP (listed as Homo sapiens) [Peptide 63]", "values": [{"measurement": "calcium flux relative to the negative control", "setting": "MrgX2", "result": "increased calcium flux"}, {"measurement": "eliciting calcium flux compared to cortistatin-14", "setting": "MrgX2", "result": "superior to cortistatin-14"}]}, {"compound": "FTSWFM-amide (FTSWFM-NH2; listed as Homo sapiens) [P58—4]", "values": [{"measurement": "inhibition of leukocyte accumulation triggered by zymosan A", "setting": "[2]; 20 nmole/mouse i.v.", "result": 35, "unit": "%"}, {"measurement": "inhibition of leukocyte accumulation triggered by zymosan A", "setting": "[2]; 80 nmole/mouse i.v.", "result": 47, "unit": "%"}, {"measurement": "inhibition of zymosan-induced neutrophil (GR-1+) accumulation", "setting": "[2]; 80 nmole/mouse i.v.", "result": 49, "unit": "%"}, {"measurement": "calcium flux, P58 and derivatives", "setting": "FPRL1", "result": "elicited calcium flux"}]}, {"compound": "GIGSVWHWKHRVATRFTLPRFLQ [Peptide P60_S]", "values": [{"measurement": "pEC50", "setting": "MrgX1", "result": "≤ 6.52"}]}, {"compound": "LQKFTSWFM-amide (LQKFTSWFM-NH2; listed as Homo sapiens) [P58—5]", "values": [{"measurement": "inhibition of leukocyte accumulation triggered by zymosan A", "setting": "[2]; 20 nmole/mouse i.v.", "result": "did not inhibit leukocyte migration"}, {"measurement": "inhibition of zymosan-induced neutrophil (GR-1+) accumulation", "setting": "[2]; 20 nmole/mouse i.v.", "result": "weak effect"}, {"measurement": "inhibition of leukocyte accumulation triggered by zymosan A", "setting": "[2]; 80 nmole/mouse i.v.", "result": 29, "unit": "%"}, {"measurement": "calcium flux, P58 and derivatives", "setting": "FPRL1", "result": "elicited calcium flux"}]}]}
